Source: ChEMBL document CHEMBL3045976, “Synthesis of biphenyl derivatives as ACE and -amylase inhibitors” (Med Chem Res, 2013)
Calls of active or inactive are those of the source. The rule behind the calls is not given here.

Experiments:
[1] = molecular target: Alpha amylase (Homo sapiens) (UniProt P0DUB6); experiment: Inhibition of alpha-amylase (unknown origin) using starch as substrate at 100 to 500 ug incubated for 10 min prior to substrate addition measured after 15 min by DNSA method relative to control
[2] = molecular target: Angiotensin-converting enzyme (Homo sapiens) (UniProt P12821); experiment: Inhibition of ACE (unknown origin) using Hippuryl-His-Leu as substrate at 1 to 10 ug incubated for 10 min prior to substrate addition measured after 45 min by spectrophotometric analysis relative to control
[3] = molecular target: Angiotensin-converting enzyme (Homo sapiens) (UniProt P12821); experiment: Inhibition of ACE (unknown origin) using Hippuryl-His-Leu as substrate at 10 ug incubated for 10 min prior to substrate addition measured after 45 min by spectrophotometric analysis relative to control

Alpha amylase (Homo sapiens), sequence (P0DUB6 whole entry, looked up): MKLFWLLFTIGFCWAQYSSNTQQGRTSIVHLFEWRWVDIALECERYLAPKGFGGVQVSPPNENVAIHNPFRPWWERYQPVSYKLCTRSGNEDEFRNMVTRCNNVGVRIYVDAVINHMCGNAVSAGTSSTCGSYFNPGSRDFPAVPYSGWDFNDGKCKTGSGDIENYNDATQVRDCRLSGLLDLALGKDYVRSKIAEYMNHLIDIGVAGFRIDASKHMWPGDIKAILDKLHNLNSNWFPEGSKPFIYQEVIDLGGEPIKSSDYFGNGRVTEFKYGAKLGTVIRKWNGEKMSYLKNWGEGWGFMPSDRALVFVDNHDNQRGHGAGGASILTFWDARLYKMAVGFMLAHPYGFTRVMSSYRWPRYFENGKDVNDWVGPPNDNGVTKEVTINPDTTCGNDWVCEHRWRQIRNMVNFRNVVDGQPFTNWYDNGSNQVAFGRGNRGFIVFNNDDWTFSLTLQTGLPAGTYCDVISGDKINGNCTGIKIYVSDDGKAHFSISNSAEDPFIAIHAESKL
Angiotensin-converting enzyme (Homo sapiens), sequence (P12821 whole entry): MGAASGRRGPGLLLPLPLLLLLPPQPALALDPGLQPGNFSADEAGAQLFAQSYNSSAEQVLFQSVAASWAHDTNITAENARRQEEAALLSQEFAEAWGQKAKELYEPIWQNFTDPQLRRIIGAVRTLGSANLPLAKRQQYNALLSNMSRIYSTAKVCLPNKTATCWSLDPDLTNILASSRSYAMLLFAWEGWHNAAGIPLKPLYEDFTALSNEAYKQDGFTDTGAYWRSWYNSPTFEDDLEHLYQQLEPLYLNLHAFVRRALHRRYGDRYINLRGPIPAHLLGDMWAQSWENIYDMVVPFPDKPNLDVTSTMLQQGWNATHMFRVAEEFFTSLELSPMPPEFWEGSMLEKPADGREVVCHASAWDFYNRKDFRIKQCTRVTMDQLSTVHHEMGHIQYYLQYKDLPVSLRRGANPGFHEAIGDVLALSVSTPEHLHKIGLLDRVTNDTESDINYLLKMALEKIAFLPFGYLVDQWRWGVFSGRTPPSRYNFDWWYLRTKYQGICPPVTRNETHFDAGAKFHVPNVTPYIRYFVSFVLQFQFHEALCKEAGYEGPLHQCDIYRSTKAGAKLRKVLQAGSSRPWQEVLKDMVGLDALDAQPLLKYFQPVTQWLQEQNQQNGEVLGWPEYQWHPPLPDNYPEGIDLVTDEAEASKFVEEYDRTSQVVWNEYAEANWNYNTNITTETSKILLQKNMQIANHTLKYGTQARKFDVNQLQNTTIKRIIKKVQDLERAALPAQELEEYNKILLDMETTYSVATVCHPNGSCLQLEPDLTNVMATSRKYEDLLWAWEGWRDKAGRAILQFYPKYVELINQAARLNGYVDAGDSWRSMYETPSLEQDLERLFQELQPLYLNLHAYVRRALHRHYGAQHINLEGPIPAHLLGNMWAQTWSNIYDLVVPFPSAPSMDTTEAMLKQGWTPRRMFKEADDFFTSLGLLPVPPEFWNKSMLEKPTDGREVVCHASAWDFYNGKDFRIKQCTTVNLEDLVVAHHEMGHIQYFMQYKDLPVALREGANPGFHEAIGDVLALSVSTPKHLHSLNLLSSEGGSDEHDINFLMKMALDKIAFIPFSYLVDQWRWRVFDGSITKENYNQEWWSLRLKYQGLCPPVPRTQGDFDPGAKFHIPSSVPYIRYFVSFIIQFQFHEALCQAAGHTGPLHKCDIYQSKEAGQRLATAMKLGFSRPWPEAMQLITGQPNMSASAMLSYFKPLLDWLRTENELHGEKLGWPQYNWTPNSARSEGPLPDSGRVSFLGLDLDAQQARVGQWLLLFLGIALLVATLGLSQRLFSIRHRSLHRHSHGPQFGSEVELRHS

Row | inhibition [1] | inhibition [2] | inhibition [3] | SMILES
1 | inactive | inactive | – | c1ccc(-c2nnn[nH]2)c(-c2ccc(CN3CCOCC3)cc2)c1
2 | inactive | inactive | – | O=C(O)C1CCN(Cc2ccc(-c3ccccc3-c3nnn[nH]3)cc2)CC1
3 | inactive | inactive | – | Cc1nnc(-c2ccccc2-c2ccc(CN3CCNCC3)cc2)o1
4 | – | – | 92% | CN1CCN(Cc2ccc(-c3ccccc3-c3nnn[nH]3)cc2)CC1
5 | inactive | inactive | – | Cc1nnc(-c2ccccc2-c2ccc(CN3CCC(C(=O)O)CC3)cc2)o1
6 | inactive | inactive | – | Cc1nnc(-c2ccccc2-c2ccc(Cn3ccnc3)cc2)o1
7 | – | – | 80% | c1ccc(-c2nnn[nH]2)c(-c2ccc(Cn3ccnc3)cc2)c1
8 | inactive | inactive | – | Cc1nnc(-c2ccccc2-c2ccc(Cn3cncn3)cc2)o1
9 | inactive | inactive | – | Cc1nnc(-c2ccccc2-c2ccc(CN3CCOCC3)cc2)o1
10 | – | inactive | – | OCCOCCN1CCN(Cc2ccc(-c3ccccc3-c3nnn[nH]3)cc2)CC1
11 | inactive | inactive | – | Cc1nnc(-c2ccccc2-c2ccc(CN3CCN(C)CC3)cc2)o1
12 | – | – | 83% | c1ccc(-c2nnn[nH]2)c(-c2ccc(CN3CCNCC3)cc2)c1
13 | inactive | inactive | – | Cc1nnc(-c2ccccc2-c2ccc(CN3CCN(CCOCCO)CC3)cc2)o1
14 | – | inactive | – | O=C1CSC(=O)N1Cc1ccc(-c2ccccc2-c2nnn[nH]2)cc1
15 | inactive | inactive | – | Cc1nnc(-c2ccccc2-c2ccc(CN3C(=O)CSC3=O)cc2)o1
16 | – | – | 80% | c1ccc(-c2nnn[nH]2)c(-c2ccc(Cn3cncn3)cc2)c1
